Assay results published in PubChem BioAssay (NCI).
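Method: 48-hour compound exposure of cells in 96-well plates, five concentrations, linear interpolation of endpoints. The concentration for 50% growth inhibition is given as GI50. At the TGI there is no net growth.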

Tests used:
Assay in all cases: inhibition of tumour cell growth, NCI panel, 48 h
786-0 renal = system: 786-0 renal
A549 NSCLC = system: A549 NSCLC
ACHN renal = system: ACHN renal
BT-549 breast = system: BT-549 breast
CAKI-1 renal = system: CAKI-1 renal
CCRF-CEM leukemia = system: CCRF-CEM leukemia
COLO 205 colon = system: COLO 205 colon
DU-145 prostate = system: DU-145 prostate
EKVX NSCLC = system: EKVX NSCLC
HCC-2998 colon = system: HCC-2998 colon
HCT-116 colon = system: HCT-116 colon
HCT-15 colon = system: HCT-15 colon
HOP-62 NSCLC = system: HOP-62 NSCLC
HOP-92 NSCLC = system: HOP-92 NSCLC
HS 578T breast = system: HS 578T breast
HT29 colon = system: HT29 colon
IGROV1 ovarian = system: IGROV1 ovarian
K-562 leukemia = system: K-562 leukemia
KM12 colon = system: KM12 colon
LOX IMVI melanoma = system: LOX IMVI melanoma
M14 melanoma = system: M14 melanoma
MCF7 breast = system: MCF7 breast
MDA-MB-231 breast = system: MDA-MB-231 breast
MDA-MB-435 = system: MDA-MB-435
MOLT-4 leukemia = system: MOLT-4 leukemia
NCI-H226 lung = system: NCI-H226 lung
NCI-H23 lung = system: NCI-H23 lung
NCI-H460 lung = system: NCI-H460 lung
NCI-H522 lung = system: NCI-H522 lung
NCI/ADR-RES ovarian = system: NCI/ADR-RES ovarian
OVCAR-3 ovarian = system: OVCAR-3 ovarian
OVCAR-4 ovarian = system: OVCAR-4 ovarian
OVCAR-5 ovarian = system: OVCAR-5 ovarian
OVCAR-8 ovarian = system: OVCAR-8 ovarian
PC-3 prostate = system: PC-3 prostate
RPMI-8226 leukemia = system: RPMI-8226 leukemia
RXF 393 renal = system: RXF 393 renal
SF-268 CNS = system: SF-268 CNS
SF-295 CNS = system: SF-295 CNS
SF-539 CNS = system: SF-539 CNS
SK-MEL-2 melanoma = system: SK-MEL-2 melanoma
SK-MEL-28 melanoma = system: SK-MEL-28 melanoma
SK-MEL-5 melanoma = system: SK-MEL-5 melanoma
SK-OV-3 ovarian = system: SK-OV-3 ovarian
SN12C renal = system: SN12C renal
SNB-19 CNS = system: SNB-19 CNS
SNB-75 CNS = system: SNB-75 CNS
SW-620 colon = system: SW-620 colon
T-47D breast = system: T-47D breast
U251 CNS = system: U251 CNS
UACC-257 melanoma = system: UACC-257 melanoma
UACC-62 melanoma = system: UACC-62 melanoma
UO-31 renal = system: UO-31 renal

**Q.** With `O=C1CS/C(=N/S(=O)(=O)c2ccc(N3N=C4c5ccccc5CC4C3c3cccs3)cc2)N(c2ccccc2)C1` (stereo unspecified) as the compound, how does the GI50 (786-0 renal) read?
**A.** 22.1 µM

**Q.** And the TGI (786-0 renal)?
**A.** > 100 µM

**Q.** And the GI50 (A549 NSCLC)?
**A.** 47.2 µM

**Q.** And the TGI (A549 NSCLC)?
**A.** > 100 µM

**Q.** What about the GI50 (ACHN renal) of the same compound?
**A.** 22.1 µM

**Q.** What about the TGI (ACHN renal) of the same compound?
**A.** 78.7 µM

**Q.** And the GI50 (BT-549 breast)?
**A.** 21.4 µM

**Q.** And the TGI (BT-549 breast)?
**A.** > 100 µM

**Q.** And the GI50 (CAKI-1 renal)?
**A.** 74.5 µM

**Q.** What about the TGI (CAKI-1 renal) of the same compound?
**A.** > 100 µM

**Q.** What about the GI50 (CCRF-CEM leukemia) of the same compound?
**A.** 36.8 µM

**Q.** And the TGI (CCRF-CEM leukemia)?
**A.** > 100 µM

**Q.** What about the GI50 (COLO 205 colon) of the same compound?
**A.** 57.2 µM

**Q.** And the TGI (COLO 205 colon)?
**A.** > 100 µM

**Q.** And the GI50 (DU-145 prostate)?
**A.** 30.7 µM

**Q.** What about the TGI (DU-145 prostate) of the same compound?
**A.** > 100 µM

**Q.** What about the GI50 (EKVX NSCLC) of the same compound?
**A.** 39.5 µM

**Q.** And the TGI (EKVX NSCLC)?
**A.** > 100 µM

**Q.** What about the GI50 (HCC-2998 colon) of the same compound?
**A.** 20.5 µM

**Q.** And the TGI (HCC-2998 colon)?
**A.** 48.5 µM

**Q.** And the GI50 (HCT-116 colon)?
**A.** 12.5 µM

**Q.** And the TGI (HCT-116 colon)?
**A.** 27.4 µM

**Q.** And the GI50 (HCT-15 colon)?
**A.** 35.5 µM

**Q.** And the TGI (HCT-15 colon)?
**A.** > 100 µM

**Q.** What about the GI50 (HOP-62 NSCLC) of the same compound?
**A.** 17.4 µM

**Q.** And the TGI (HOP-62 NSCLC)?
**A.** 49.2 µM

**Q.** And the GI50 (HOP-92 NSCLC)?
**A.** 79.9 µM

**Q.** And the TGI (HOP-92 NSCLC)?
**A.** > 100 µM

**Q.** What about the GI50 (HS 578T breast) of the same compound?
**A.** 20.5 µM

**Q.** What about the TGI (HS 578T breast) of the same compound?
**A.** 83.7 µM

**Q.** What about the GI50 (HT29 colon) of the same compound?
**A.** 61 µM

**Q.** What about the TGI (HT29 colon) of the same compound?
**A.** > 100 µM

**Q.** What about the GI50 (IGROV1 ovarian) of the same compound?
**A.** 19.5 µM

**Q.** What about the TGI (IGROV1 ovarian) of the same compound?
**A.** > 100 µM

**Q.** What about the GI50 (K-562 leukemia) of the same compound?
**A.** 10.3 µM

**Q.** What about the TGI (K-562 leukemia) of the same compound?
**A.** 93.5 µM

**Q.** And the GI50 (KM12 colon)?
**A.** 28.4 µM

**Q.** What about the TGI (KM12 colon) of the same compound?
**A.** 88.4 µM

**Q.** And the GI50 (LOX IMVI melanoma)?
**A.** 21.2 µM

**Q.** And the TGI (LOX IMVI melanoma)?
**A.** 51 µM

**Q.** And the GI50 (M14 melanoma)?
**A.** 39.1 µM

**Q.** And the TGI (M14 melanoma)?
**A.** > 100 µM

**Q.** And the GI50 (MCF7 breast)?
**A.** 88.8 µM

**Q.** What about the TGI (MCF7 breast) of the same compound?
**A.** > 100 µM

**Q.** What about the GI50 (MDA-MB-231 breast) of the same compound?
**A.** 21.4 µM

**Q.** And the TGI (MDA-MB-231 breast)?
**A.** 84.8 µM

**Q.** And the GI50 (MDA-MB-435)?
**A.** 29.5 µM

**Q.** And the TGI (MDA-MB-435)?
**A.** > 100 µM

**Q.** What about the GI50 (MOLT-4 leukemia) of the same compound?
**A.** 0.0146 µM

**Q.** And the TGI (MOLT-4 leukemia)?
**A.** 34.8 µM

**Q.** What about the GI50 (NCI-H226 lung) of the same compound?
**A.** 22.3 µM

**Q.** What about the TGI (NCI-H226 lung) of the same compound?
**A.** 93.8 µM

**Q.** And the GI50 (NCI-H23 lung)?
**A.** 24.2 µM

**Q.** What about the TGI (NCI-H23 lung) of the same compound?
**A.** 63.5 µM

**Q.** What about the GI50 (NCI-H460 lung) of the same compound?
**A.** > 100 µM

**Q.** What about the TGI (NCI-H460 lung) of the same compound?
**A.** > 100 µM

**Q.** What about the GI50 (NCI-H522 lung) of the same compound?
**A.** 23.8 µM

**Q.** And the TGI (NCI-H522 lung)?
**A.** > 100 µM

**Q.** What about the GI50 (NCI/ADR-RES ovarian) of the same compound?
**A.** > 100 µM

**Q.** What about the TGI (NCI/ADR-RES ovarian) of the same compound?
**A.** > 100 µM

**Q.** And the GI50 (OVCAR-3 ovarian)?
**A.** > 100 µM

**Q.** And the TGI (OVCAR-3 ovarian)?
**A.** > 100 µM

**Q.** What about the GI50 (OVCAR-4 ovarian) of the same compound?
**A.** > 100 µM

**Q.** And the TGI (OVCAR-4 ovarian)?
**A.** > 100 µM

**Q.** And the GI50 (OVCAR-5 ovarian)?
**A.** 34.6 µM

**Q.** And the TGI (OVCAR-5 ovarian)?
**A.** > 100 µM

**Q.** And the GI50 (OVCAR-8 ovarian)?
**A.** 25.4 µM

**Q.** What about the TGI (OVCAR-8 ovarian) of the same compound?
**A.** > 100 µM

**Q.** And the GI50 (PC-3 prostate)?
**A.** 45 µM

**Q.** And the TGI (PC-3 prostate)?
**A.** > 100 µM

**Q.** And the GI50 (RPMI-8226 leukemia)?
**A.** 31 µM

**Q.** What about the TGI (RPMI-8226 leukemia) of the same compound?
**A.** > 100 µM

**Q.** And the GI50 (RXF 393 renal)?
**A.** 41 µM

**Q.** What about the TGI (RXF 393 renal) of the same compound?
**A.** > 100 µM

**Q.** What about the GI50 (SF-268 CNS) of the same compound?
**A.** > 100 µM

**Q.** What about the TGI (SF-268 CNS) of the same compound?
**A.** > 100 µM

**Q.** What about the GI50 (SF-295 CNS) of the same compound?
**A.** 32.7 µM

**Q.** And the TGI (SF-295 CNS)?
**A.** > 100 µM

**Q.** What about the GI50 (SF-539 CNS) of the same compound?
**A.** 27.8 µM

**Q.** And the TGI (SF-539 CNS)?
**A.** 99.2 µM

**Q.** What about the GI50 (SK-MEL-2 melanoma) of the same compound?
**A.** 60.2 µM

**Q.** What about the TGI (SK-MEL-2 melanoma) of the same compound?
**A.** > 100 µM

**Q.** And the GI50 (SK-MEL-28 melanoma)?
**A.** > 100 µM

**Q.** And the TGI (SK-MEL-28 melanoma)?
**A.** > 100 µM

**Q.** And the GI50 (SK-MEL-5 melanoma)?
**A.** 38.2 µM

**Q.** What about the TGI (SK-MEL-5 melanoma) of the same compound?
**A.** > 100 µM

**Q.** And the GI50 (SK-OV-3 ovarian)?
**A.** > 100 µM

**Q.** And the TGI (SK-OV-3 ovarian)?
**A.** > 100 µM

**Q.** What about the GI50 (SN12C renal) of the same compound?
**A.** 34.3 µM

**Q.** What about the TGI (SN12C renal) of the same compound?
**A.** > 100 µM

**Q.** And the GI50 (SNB-19 CNS)?
**A.** 55.7 µM

**Q.** What about the TGI (SNB-19 CNS) of the same compound?
**A.** > 100 µM

**Q.** What about the GI50 (SNB-75 CNS) of the same compound?
**A.** > 100 µM

**Q.** What about the TGI (SNB-75 CNS) of the same compound?
**A.** > 100 µM

**Q.** What about the GI50 (SW-620 colon) of the same compound?
**A.** 45.2 µM

**Q.** What about the TGI (SW-620 colon) of the same compound?
**A.** > 100 µM

**Q.** And the GI50 (T-47D breast)?
**A.** 69.2 µM

**Q.** And the TGI (T-47D breast)?
**A.** > 100 µM

**Q.** And the GI50 (U251 CNS)?
**A.** 28 µM

**Q.** And the TGI (U251 CNS)?
**A.** > 100 µM

**Q.** And the GI50 (UACC-257 melanoma)?
**A.** 42.3 µM

**Q.** What about the TGI (UACC-257 melanoma) of the same compound?
**A.** > 100 µM

**Q.** And the GI50 (UACC-62 melanoma)?
**A.** 16.1 µM

**Q.** What about the TGI (UACC-62 melanoma) of the same compound?
**A.** 38.9 µM

**Q.** And the GI50 (UO-31 renal)?
**A.** 69.3 µM

**Q.** And the TGI (UO-31 renal)?
**A.** > 100 µM
